ChEMBL document CHEMBL4152230, “Discovery of N-{3-[(ethanimidoylamino)methyl]benzyl}-l-prolinamide dihydrochloride: A new potent and selective inhibitor of the inducible nitric oxide synthase as a promising agent for the therapy of malignant glioma” (Eur J Med Chem, 2018)
Blank lines part the entries; values can stand above or below the molecule they belong to.

Experiments:
Nitric oxide synthase 3 = target: T1, Nitric oxide synthase 3 (Bos taurus, UniProt P29473); assay: Inhibition of recombinant bovine eNOS using [3H]L-arginine as substrate preincubated for 15 mins followed by NADPH addition measured after 20 mins in presence of FMN/FAD by liquid scintillation counting method
T1 sequence (P29473 whole entry): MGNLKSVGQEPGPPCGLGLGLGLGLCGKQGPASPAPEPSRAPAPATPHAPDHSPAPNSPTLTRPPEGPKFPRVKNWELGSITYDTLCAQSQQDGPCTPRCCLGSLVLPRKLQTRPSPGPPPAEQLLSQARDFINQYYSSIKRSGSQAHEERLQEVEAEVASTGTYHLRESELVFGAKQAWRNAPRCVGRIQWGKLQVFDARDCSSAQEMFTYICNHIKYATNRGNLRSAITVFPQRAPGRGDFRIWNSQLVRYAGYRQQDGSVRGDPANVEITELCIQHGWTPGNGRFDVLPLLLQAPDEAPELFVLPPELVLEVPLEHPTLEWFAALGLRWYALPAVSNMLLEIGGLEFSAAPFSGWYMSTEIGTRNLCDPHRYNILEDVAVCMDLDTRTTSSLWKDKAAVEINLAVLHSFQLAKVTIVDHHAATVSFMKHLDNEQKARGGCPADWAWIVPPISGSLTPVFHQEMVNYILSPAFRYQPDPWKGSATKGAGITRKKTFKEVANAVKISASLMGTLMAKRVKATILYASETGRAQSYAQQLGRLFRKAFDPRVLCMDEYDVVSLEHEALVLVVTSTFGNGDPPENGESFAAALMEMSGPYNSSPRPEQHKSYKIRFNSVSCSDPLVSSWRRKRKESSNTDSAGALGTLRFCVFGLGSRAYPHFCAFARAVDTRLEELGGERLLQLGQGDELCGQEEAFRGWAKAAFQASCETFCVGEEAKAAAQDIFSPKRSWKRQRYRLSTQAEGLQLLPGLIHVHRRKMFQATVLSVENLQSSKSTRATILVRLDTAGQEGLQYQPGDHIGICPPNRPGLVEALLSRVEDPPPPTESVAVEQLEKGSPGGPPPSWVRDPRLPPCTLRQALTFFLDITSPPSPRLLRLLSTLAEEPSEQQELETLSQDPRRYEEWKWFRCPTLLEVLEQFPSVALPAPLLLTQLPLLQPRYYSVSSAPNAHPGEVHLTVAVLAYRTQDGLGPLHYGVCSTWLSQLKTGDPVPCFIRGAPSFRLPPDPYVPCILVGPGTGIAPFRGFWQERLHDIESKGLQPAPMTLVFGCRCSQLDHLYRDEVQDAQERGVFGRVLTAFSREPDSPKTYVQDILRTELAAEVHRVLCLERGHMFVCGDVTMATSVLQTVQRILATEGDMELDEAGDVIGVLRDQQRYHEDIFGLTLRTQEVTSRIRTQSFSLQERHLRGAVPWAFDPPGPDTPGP

[1] = Selectivity index, ratio of IC50 for recombinant bovine eNOS to IC50 for recombinant mouse iNOS
[2] = target: T2, Nitric oxide synthase, inducible (Mus musculus, UniProt P29477); assay: Inhibition of recombinant mouse iNOS using [3H]L-arginine as substrate preincubated for 15 mins followed by NADPH addition measured after 20 mins in presence of FMN/FAD by liquid scintillation counting method
T2 sequence (P29477 whole entry): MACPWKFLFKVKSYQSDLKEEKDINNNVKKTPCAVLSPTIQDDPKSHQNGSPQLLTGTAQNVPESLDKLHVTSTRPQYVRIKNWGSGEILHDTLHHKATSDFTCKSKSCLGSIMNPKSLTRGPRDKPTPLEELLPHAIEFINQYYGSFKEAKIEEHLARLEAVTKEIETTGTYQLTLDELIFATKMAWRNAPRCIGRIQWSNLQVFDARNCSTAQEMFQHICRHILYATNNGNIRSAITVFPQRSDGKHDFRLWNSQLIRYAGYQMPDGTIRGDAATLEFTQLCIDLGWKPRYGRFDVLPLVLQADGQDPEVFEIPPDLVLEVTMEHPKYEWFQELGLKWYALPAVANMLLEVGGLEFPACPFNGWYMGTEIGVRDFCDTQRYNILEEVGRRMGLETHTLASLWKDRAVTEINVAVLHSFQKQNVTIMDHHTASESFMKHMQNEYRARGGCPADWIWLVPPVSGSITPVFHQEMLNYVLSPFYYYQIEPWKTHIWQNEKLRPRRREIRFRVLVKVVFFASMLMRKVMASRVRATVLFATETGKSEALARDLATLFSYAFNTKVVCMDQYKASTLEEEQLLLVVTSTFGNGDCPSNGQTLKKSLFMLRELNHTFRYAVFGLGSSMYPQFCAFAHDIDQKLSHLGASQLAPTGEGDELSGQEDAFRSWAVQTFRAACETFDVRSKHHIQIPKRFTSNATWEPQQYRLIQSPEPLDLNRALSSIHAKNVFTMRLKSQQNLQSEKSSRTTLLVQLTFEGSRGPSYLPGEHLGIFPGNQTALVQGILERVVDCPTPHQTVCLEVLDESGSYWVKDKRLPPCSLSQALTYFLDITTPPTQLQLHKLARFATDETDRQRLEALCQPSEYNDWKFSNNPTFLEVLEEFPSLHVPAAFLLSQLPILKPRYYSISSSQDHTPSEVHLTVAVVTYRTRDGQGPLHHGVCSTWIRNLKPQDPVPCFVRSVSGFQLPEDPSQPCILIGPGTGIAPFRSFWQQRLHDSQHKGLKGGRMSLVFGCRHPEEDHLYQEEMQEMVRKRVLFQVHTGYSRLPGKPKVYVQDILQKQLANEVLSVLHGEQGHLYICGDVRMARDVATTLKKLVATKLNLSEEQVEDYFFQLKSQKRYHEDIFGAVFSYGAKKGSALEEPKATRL

[3] = Cytotoxicity against rat CTX/TNA2 cells assessed as inhibition of cell proliferation at 1.5 mM after 24 hrs by MTT assay relative to control; type: cell-based
C6 [4] = assay: Cytotoxicity against rat C6 cells assessed as inhibition of cell proliferation after 24 to 48 hrs by MTT assay; type: functional, cell-based
C6 [5] = assay: Cytotoxicity against rat C6 cells assessed as cell proliferation at 2 mM after 24 hrs by MTT assay relative to control; type: functional; conditions: C6, 24 h, read-out: Activity
C6 [6] = assay: Cytotoxicity against rat C6 cells assessed as cell proliferation at 0.5 mM after 48 hrs by MTT assay relative to control; type: functional; conditions: C6, 48 h, read-out: Activity
C6 [7] = assay: Cytotoxicity against rat C6 cells assessed as cell proliferation up to 2 mM after 48 hrs by MTT assay relative to control; type: functional
[8] = Cytotoxicity against rat CTX/TNA2 cells assessed as inhibition of cell proliferation at 2 mM after 24 hrs by MTT assay relative to control; type: cell-based
C6 [9] = assay: Cytotoxicity against rat C6 cells assessed as cell proliferation at 1 mM after 24 hrs by MTT assay relative to control; type: functional; conditions: C6, 24 h, read-out: Activity
C6 [10] = assay: Cytotoxicity against rat C6 cells assessed as cell proliferation at 0.75 mM after 72 hrs by MTT assay relative to control; type: functional; conditions: C6, 72 h, read-out: Activity
C6 [11] = assay: Cytotoxicity against rat C6 cells assessed as cell proliferation at 1.5 mM after 24 hrs by MTT assay relative to control; type: functional; conditions: C6, 24 h, read-out: Activity
[12] = Cytotoxicity against rat CTX/TNA2 cells assessed as inhibition of cell proliferation up to 72 hrs by MTT assay; type: cell-based

IC50 (Nitric oxide synthase 3): 211 µM
Ratio IC50 [1]: 473
IC50 [2]: 0.446 µM
SMILES: CC(=N)NCc1cccc(CNC(=O)[C@@H](N)CCCCN)c1

SMILES: CC(=N)NCc1cccc(CN)c1 [1400W]
inhibition at 24 h, 1500 µM [3]: ≤ 67.4%
inhibition (C6 [4]): Dose-dependent effect
growth at 2000 µM (C6 [5]): 55.2%
growth at 500 µM (C6 [6]): 68.9%
Activity (C6 [7]): 35.66%
inhibition at 24 h, 2000 µM [8]: 69.2%
growth at 1000 µM (C6 [9]): 83.2%
growth at 750 µM (C6 [10]): 64.6%
growth at 1500 µM (C6 [11]): 70.6%
Activity [12]: Dose-dependent effect

IC50 [2]: > 10 µM
SMILES: CC(=N)NCc1cccc(CNC(=O)[C@@H](N)CO)c1

IC50 [2]: > 10 µM
SMILES: CC(=N)NCc1cccc(CNC(=O)[C@@H](N)C(C)C)c1

IC50 [2]: > 10 µM
SMILES: CC(=N)NCc1cccc(CNC(=O)[C@@H](N)Cc2c[nH]c3ccccc23)c1

IC50 (Nitric oxide synthase 3): > 1000 µM
Ratio IC50 [1]: > 3600
IC50 [2]: 0.276 µM
SMILES: CC(=N)NCc1cccc(CNC(=O)[C@H](C)N)c1

IC50 [2]: > 10 µM
SMILES: CC(=N)NCc1cccc(CNC(=O)[C@@H](N)CS)c1

IC50 [2]: > 10 µM
SMILES: CC(=N)NCc1cccc(CNC(=O)[C@@H](N)[C@@H](C)O)c1

IC50 (Nitric oxide synthase 3): 10 µM
Ratio IC50 [1]: 8
IC50 [2]: 1.23 µM
SMILES: CC(=N)NCc1cccc(CNC(=O)[C@@H](N)CCC(=O)O)c1

IC50 [2]: > 10 µM
SMILES: CSCC[C@H](N)C(=O)NCc1cccc(CNC(C)=N)c1

IC50 [2]: > 10 µM
SMILES: CC(=N)NCc1cccc(CNC(=O)[C@@H](N)CC(N)=O)c1
